What follows are molecules tested against T1, Human Recombinant Matriptase 2 (Homo sapiens, UniProt Q8IU80) (assay: Matriptase 2 fluorescence based inhibition assay, Method B (50 mM TRIS pH 7.5, 150 mM NaCl, 0.01% gelatin)). Settings: 1 uM compound; Assay Used = B.
T1 construct: purchased Enzo Life Sciences (an in-house preparation was also used) ALX-201-752-1
T1 sequence (Q8IU80 1-811): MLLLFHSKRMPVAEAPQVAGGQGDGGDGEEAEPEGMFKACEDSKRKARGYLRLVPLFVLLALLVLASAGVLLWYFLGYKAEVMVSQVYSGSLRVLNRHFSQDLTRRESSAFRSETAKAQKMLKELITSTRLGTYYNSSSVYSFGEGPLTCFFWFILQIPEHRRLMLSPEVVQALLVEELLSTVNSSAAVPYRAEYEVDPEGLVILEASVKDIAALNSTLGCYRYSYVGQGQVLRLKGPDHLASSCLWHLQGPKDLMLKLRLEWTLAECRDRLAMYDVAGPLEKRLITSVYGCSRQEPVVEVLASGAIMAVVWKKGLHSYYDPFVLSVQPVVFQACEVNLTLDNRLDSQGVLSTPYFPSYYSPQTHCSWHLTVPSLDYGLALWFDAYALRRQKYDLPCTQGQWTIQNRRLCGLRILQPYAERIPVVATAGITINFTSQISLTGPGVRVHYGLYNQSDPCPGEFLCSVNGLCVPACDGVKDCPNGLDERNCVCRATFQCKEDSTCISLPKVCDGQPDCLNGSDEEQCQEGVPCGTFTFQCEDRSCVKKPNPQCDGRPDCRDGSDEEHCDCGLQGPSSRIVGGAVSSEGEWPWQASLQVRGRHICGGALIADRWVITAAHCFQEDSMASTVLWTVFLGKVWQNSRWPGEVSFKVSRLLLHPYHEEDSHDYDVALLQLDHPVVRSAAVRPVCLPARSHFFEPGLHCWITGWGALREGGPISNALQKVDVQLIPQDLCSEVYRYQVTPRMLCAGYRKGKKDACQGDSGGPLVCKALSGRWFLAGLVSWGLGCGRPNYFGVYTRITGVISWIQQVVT
Format: biochemical
Description: Test compounds were evaluated for their potential to inhibit Human Recombinant Matriptase 2 (in-house and commercial protein from Enzo Life Sciences—cat log -ALX-201-752-1) using fluorescence based assay. The concentration of Recombinant Matriptase 2 and the substrate used in the assay was: 7 nM (commercial) and 15 nM (Inhouse Matriptase 2) and 100 μM (Boc-Gln-Ala-Arg-7-amido-4-methyl coumarin hydrobromide—Cat log: B4153-Sigma and I-1550 from Bachem) respectively. The assay buffer used was 50 mM TRIS pH 7.5, 150 mM NaCl, 0.01% gelatin (G1393 Sigma). The assay was performed using 384 well black flat bottom plate from grenier (Cat log: 781076) at 25° C. The enzyme and compound preincubated for 30 mins, plate was read 60 mins after substrate addition at wavelength Ex: 360/Em:480 nm. The final assay volume of was 20 μl. Stock solution of compounds were initially prepared in DMSO and appropriate dilutions were made for screening and IC50 determination (final DMSO conc in the assay was 1%). All the measurements were carried out using the Spectramax M5, Molecular devices. The compounds were screened at 1 and 10 μM concentration and IC50 was determined for the interested compounds.
To determine IC50 values, dose response curves were generated by plotting percentage inhibition as a function of inhibitor concentration and the data was fitted to sigmoidal non-linear regression equation (variable slope) using Graph Pad prism software V7.
For `CNC(=O)c1cc2ccc(C(=N)N)cc2n1Cc1cccc2ccccc12` [Compound I-483], the “Mar-2 % inhibition at 1 uM” value was “C (C represents 50%≤I≤75%)”.

Same assay, conditions: 1 uM compound; Assay Used = B (Method B); read-out: Mar-2 % inhibition at 1 uM
In the case of `N=C(N)c1ccc2cc(C(=O)O)n(Cc3cc(OC(F)F)cc4ccccc34)c2c1` [Compound I-648], the inhibition at 1 µM is reported as 50 to 75%.
`CN1CC[C@H](COC(=O)c2cc3ccc(C(=N)N)cc3n2Cc2cccc3ccccc23)c2ccccc21` [Compound I-779] showed an inhibition at 1 µM of 25 to 50%.
`N=C(N)c1cnc2cc(C(=O)O)n(Cc3cccc4ccccc34)c2c1` [Compound I-713] gave an inhibition at 1 µM of 0 to 25%.
With `N=C(N)c1ccc2cc(C(=O)N[C@H]3CC[C@H](NC(N)=O)CC3)n(Cc3cccc4ccccc34)c2c1` [Compound I-736] the inhibition at 1 µM was 50 to 75%.
In the case of `N=C(N)c1ccc2cc(C(=O)N[C@H]3CC[C@H](N)CC3)n(Cc3c(Cl)c(Sc4ccccc4)cc4ccccc34)c2c1` [Compound I-652], the inhibition at 1 µM is reported as 50 to 75%.
Molecule `N=C(N)c1ccc2cc(C(=O)O)n(Cc3cc(Oc4ccsc4)cc4ccccc34)c2c1` [Compound I-655] has an inhibition at 1 µM of 50 to 75%.
`Cc1c(C(=O)O)n(Cc2cccc3ccccc23)c2cc(C(=N)N)ccc12` [Compound I-638, 6-carbamimidoyl-3-methyl-1-(naphthalen-1-ylmethyl)-1H-indole-2-carboxylic Acid] gave an inhibition at 1 µM of 50 to 75%.
`CN1CCC(COC(=O)c2cc3ccc(C(=N)N)cc3n2Cc2cccc3ccccc23)CC1` [Compound I-761] showed an inhibition at 1 µM of 75 to 100%.
`CC(C)OC(=O)NC(=N)c1ccc2cc(C(=O)NC3CCN(C)CC3)n(Cc3cccc4ccccc34)c2c1` [Compound I-784] gave an inhibition at 1 µM of 25 to 50%.
`CC(C)(C)OC(=O)Nc1cc2ccc(C(=N)N)cc2n1Cc1cc(S(=O)(=O)c2ccccc2)cc2ccccc12` [Compound I-603, tert-butyl (6-carbamimidoyl-1-((3-(phenylsulfonyl)naphthalen-1-yl)methyl)-1H-indol-2-yl)carbamate] showed an inhibition at 1 µM of 25 to 50%.
`N=C(N)c1ccc2cc(C(=O)N[C@H]3CCCc4ccccc43)n(Cc3cccc4ccccc34)c2c1` [Compound I-764] showed an inhibition at 1 µM of 0 to 25%.
For `N=C(N)c1ccc2cc(C(=O)N[C@H]3CC[C@H](N)CC3)n(Cc3cc(Oc4ccccc4)cc4ccccc34)c2n1` [Compound I-721], the inhibition at 1 µM was 75 to 100%.
Work on `N=C(N)c1ccc2cc(C(=O)O)n(Cc3cc(OC4CCCCC4)cc4ccccc34)c2c1` [Compound I-682] yielded an inhibition at 1 µM of 25 to 50%.
`N=C(N)c1ccc2cc(C(=O)N[C@H]3CC[C@H](NC=O)CC3)n(Cc3cccc4ccccc34)c2c1` [Compound I-729] gave an inhibition at 1 µM of 50 to 75%.
`CS(=O)(=O)Nc1cc2ccc(C(=N)N)cc2n1Cc1cccc2ccccc12` [Compound I-749, 2-(methylsulfonamido)-1-(naphthalen-1-ylmethyl)-1H-indole-6-carboximidamide] was tested, and the inhibition at 1 µM was 50 to 75%.
`Cn1c(C(=O)O)c(-c2ccc3ccccc3c2)c2cc(C(=N)N)ccc21` [Compound I-637] was tested, and the inhibition at 1 µM was 0 to 25%.
Molecule `N=C(N)c1ccc2cc(C(=O)O)n(Cc3cc(Oc4ccccc4)cc4ccccc34)c2n1` [Compound I-732] has an inhibition at 1 µM of 25 to 50%.
`N=C(N)c1ccc2cc(-c3nnnn3CCO)n(Cc3cccc4ccccc34)c2c1` [Compound I-710] gave an inhibition at 1 µM of 75 to 100%.

Same assay, conditions: 1 uM compound; Assay Used = B; read-out: Mar-2 % inhibition at 1 uM
Work on `CC(C)(C)OC(=O)N[C@H]1CC[C@H](NC(=O)c2cc3ccc(C(=N)N)cc3n2-c2ccc3ccccc3c2)CC1` [Compound I-416] yielded an inhibition at 1 µM of 0 to 25%.
`N=C(N)c1ccc2cc(C(=O)NC34CC5C[C@H](C3)C[C@](O)(C5)C4)n(Cc3cccc4ccccc34)c2c1` (stereo in doubt) [Compound I-449] gave an inhibition at 1 µM of 25 to 50%.
With `N=C(N)c1ccc2cc(C(=O)NCC3CCNCC3)n(Cc3cccc4ccccc34)c2c1` [Compound I-497, 6-carbamimidoyl-1-(naphthalen-1-ylmethyl)-N-(piperidin-4-ylmethyl)-1H-indole-2-carboxamide] the inhibition at 1 µM was 75 to 100%.
`Cc1ccnc(Oc2cc(Cn3c(C(=O)O)cc4ccc(C(=N)N)cc43)c3ccccc3c2)n1` [Compound I-566] was tested, and the inhibition at 1 µM was 25 to 50%.
Work on `N=C(N)c1ccc2c(C=O)c(C(=O)N[C@H]3CC[C@H](N)CC3)n(Cc3cccc4ccccc34)c2c1` [Compound I-515, N-((1r,4r)-4-aminocyclohexyl)-6-carbamimidoyl-3-formyl-1-(naphthalen-1-ylmethyl)-1H-indole-2-carboxamide] yielded an inhibition at 1 µM of 25 to 50%.
Molecule `CC(C)(C)OC(=O)NC(=N)c1ccc2cc(C(=O)N[C@H]3CC[C@H](NC(=O)OC(C)(C)C)CC3)n(Cc3ccc(C(N)=O)cc3)c2c1` [Compound I-495] has an inhibition at 1 µM of 0 to 25%.
`N=C(N)c1ccc2c(F)c(C(=O)O)n(Cc3cccc4ccccc34)c2c1` [Compound I-577, 6-carbamimidoyl-3-fluoro-1-(naphthalen-1-ylmethyl)-1H-indole-2-carboxylic Acid] showed an inhibition at 1 µM of 50 to 75%.
`N=C(N)c1ccc2cc(C(=O)N[C@H]3CC[C@H](N)CC3)n(CCS(=O)(=O)c3cccc4ccccc34)c2c1` [Compound I-501] showed an inhibition at 1 µM of 0 to 25%.
`N=C(N)c1cc(F)c2cc(C(=O)O)n(Cc3cc(Oc4ncccn4)cc4ccccc34)c2c1` [Compound I-569, 6-carbamimidoyl-4-fluoro-1-((3-(pyrimidin-2-yloxy)naphthalen-1-yl)methyl)-1H-indole-2-carboxylic Acid] was tested, and the inhibition at 1 µM was 75 to 100%.
`N=C(N)c1ccc2cc(C(=O)O)n(Cc3cc(NS(=O)(=O)c4ccccc4)cc4ccccc34)c2c1` [Compound I-567, 6-carbamimidoyl-1-((3-(phenylsulfonamido)naphthalen-1-yl)methyl)-1H-indole-2-carboxylic Acid] gave an inhibition at 1 µM of 75 to 100%.
`N=C(N)c1ccc2cc(C(=O)O[C@H]3CC[C@H](N)CC3)n(Cc3cccc4ccccc34)c2c1` [Compound I-485, (1r,4r)-4-aminocyclohexyl 6-carbamimidoyl-1-(naphthalen-1-ylmethyl)-1H-indole-2-carboxylate] gave an inhibition at 1 µM of 75 to 100%.
In the case of `N=C(N)c1ccc2cc(C(=O)O)n(Cc3cc(S(N)(=O)=O)cc4ccccc34)c2c1` [Compound I-548], the inhibition at 1 µM is reported as 25 to 50%.
With `N=C(N)c1ccc2cc(C(=O)NCC3(C(N)=O)CCCCC3)n(Cc3cccc4ccccc34)c2c1` [Compound I-464] the inhibition at 1 µM was 50 to 75%.
`N=C(N)c1ccc2cc(C(=O)O)n(-c3cccc4ccccc34)c2c1` [Compound I-489] gave an inhibition at 1 µM of 0 to 25%.

Same assay, conditions: 1 uM; Assay Used B; read-out: Mar-2 % inhibition at 1 uM
Molecule `N=C(N)c1ccc2cc(C(=O)N[C@H]3CC[C@H](N)CC3)n(S(=O)(=O)c3ccc4ccccc4c3)c2c1` [Compound I-37] has an inhibition at 1 µM of 0 to 25%.

Same assay, conditions: compound at 1 uM; Assay Used: B; read-out: Mar-2 % inhibition at 1 uM
For `COC(=O)c1ccc(Cn2c(C(=O)N[C@H]3CC[C@H](N)CC3)cc3ccc(C(=N)N)cc32)c2ccccc12` [Compound I-825], the inhibition at 1 µM was 75 to 100%.
With `N/C(=N\O)c1ccc2cc(C(=O)NC3CCNCC3)n(Cc3cccc4ccccc34)c2c1` [Compound I-809] the inhibition at 1 µM was 25 to 50%.
For `N=C(N)c1ccc2cc(C(=O)N[C@H]3CC[C@H](N)CC3)n(Cc3cccc4sc(C(=O)O)cc34)c2c1` [Compound I-815, 4-((2-(((1r,4r)-4-aminocyclohexyl)carbamoyl)-6-carbamimidoyl-1H-indol-1-yl)methyl) benzo[b]thiophene-2-carboxylic Acid], the inhibition at 1 µM was 50 to 75%.

Same assay, conditions: read-out: Mar-2 % inhibition at 1 uM
For `CN1CCC(NC(=O)c2cc3ccc(C(=N)NC(=O)Oc4ccccc4)cc3n2Cc2cc(Oc3ncccn3)cc3ccccc23)CC1` [Compound I-553], the inhibition at 1 µM was 0 to 25%.
With `CN1CCC(NC(=O)c2cc3ccc(C(=N)NC(=O)Oc4ccccc4)cc3n2Cc2cccc3ccccc23)CC1` [Compound I-782] the inhibition at 1 µM was 50 to 75%.
